Assay results: a polymer gas permeability compilation

## *C(=C(*)c1ccc2c(c1)C(C)(C)CC2(C)C)c1ccc(C)cc1 (repeat unit)
  CH4 permeability: 10100 Barrer
  CO2 permeability: 16900 Barrer
  H2 permeability: 10800 Barrer
  N2 permeability: 4100 Barrer
  O2 permeability: 5700 Barrer

## *C(=C(*)c1ccc2c(c1)C(C)(C)CC2(C)C)c1ccc(Cl)cc1 (repeat unit)
  CH4 permeability: 22700 Barrer
  CO2 permeability: 35200 Barrer
  H2 permeability: 20600 Barrer
  N2 permeability: 9200 Barrer
  O2 permeability: 11700 Barrer

## *C(=C(*)c1ccc2c(c1)C(C)(C)CC2(C)C)c1ccc(F)c(F)c1 (repeat unit)
  CH4 permeability: 35000 Barrer
  CO2 permeability: 44200 Barrer
  H2 permeability: 36800 Barrer
  N2 permeability: 16600 Barrer
  O2 permeability: 18700 Barrer

## *C(=C(*)c1ccc2c(c1)C(C)(C)CC2(C)C)c1cccc(F)c1 (repeat unit)
  CH4 permeability: 27800 Barrer
  CO2 permeability: 35200 Barrer
  H2 permeability: 27000 Barrer
  N2 permeability: 12000 Barrer
  O2 permeability: 14300 Barrer

## *C(=C(*)c1ccc2c(c1)C(C)(C)c1cc(Br)ccc1-2)c1ccccc1 (repeat unit)
  CH4 permeability: 3000 Barrer
  CO2 permeability: 8000 Barrer
  H2 permeability: 3700 Barrer
  N2 permeability: 1100 Barrer
  O2 permeability: 2000 Barrer

## *c1c(C)c2c(c(N3C(=O)c4ccc(Oc5ccc6c(c5)C(=O)N(*)C6=O)cc4C3=O)c1C)C(C)(C)CC2 (repeat unit)
  CH4 permeability: 10.3 Barrer
  CO2 permeability: 161 Barrer
  N2 permeability: 10.3 Barrer
  O2 permeability: 43.9 Barrer

## *c1c(C)cc(-c2cc(C)c(-n3c(=O)c4cc5oc6cc7c(cc6oc5cc4c3=O)C3(C)CCC7(C)c4cc5oc6cc7c(=O)n(*)c(=O)c7cc6oc5cc43)c3ccccc23)c2ccccc12 (repeat unit)
  CH4 permeability: 180 Barrer
  CO2 permeability: 3000 Barrer
  H2 permeability: 2490 Barrer
  N2 permeability: 141 Barrer
  O2 permeability: 583 Barrer

## *c1c(C)cc(-c2cc(C)c(N3C(=O)c4cc5c(cc4C3=O)C3(CC(C)(C)c4cc6c(cc43)C(=O)N(*)C6=O)CC5(C)C)c3ccccc23)c2ccccc12 (repeat unit)
  CH4 permeability: 359 Barrer
  CO2 permeability: 4030 Barrer
  H2 permeability: 1620 Barrer
  N2 permeability: 212 Barrer
  O2 permeability: 640 Barrer

## *c1c(C)cc(-c2cc(C)c(N3C(=O)c4cc5c(cc4C3=O)S(=O)(=O)c3cc4c(cc3S5(=O)=O)C(=O)N(*)C4=O)c(C)c2)cc1C (repeat unit)
  CH4 permeability: 1.21 Barrer
  CO2 permeability: 39 Barrer
  H2 permeability: 58 Barrer
  N2 permeability: 1.33 Barrer
  O2 permeability: 6.6 Barrer

## *c1c(C)cc(-c2cc(C)c(N3C(=O)c4ccc(Oc5cc(C(C)(C)C)c(Oc6ccc7c(c6)C(=O)N(*)C7=O)cc5C(C)(C)C)cc4C3=O)c(C)c2)cc1C (repeat unit)
  CH4 permeability: 5.6 Barrer
  CO2 permeability: 95 Barrer
  H2 permeability: 150 Barrer
  N2 permeability: 4.9 Barrer
  O2 permeability: 22 Barrer

## *c1c(C)cc(-c2cc(C)c(N3C(=O)c4ccc(Oc5cc(C)c(Oc6ccc7c(c6)C(=O)N(*)C7=O)c(C)c5C)cc4C3=O)c(C)c2)cc1C (repeat unit)
  CH4 permeability: 1.2 Barrer
  CO2 permeability: 39 Barrer
  H2 permeability: 55 Barrer
  N2 permeability: 1.2 Barrer
  O2 permeability: 6.5 Barrer

## *c1c(C)cc(C)c(N2C(=O)c3ccc(-c4ccc5c(c4)C(=O)N(*)C5=O)cc3C2=O)c1C (repeat unit)
  CH4 permeability: 8 Barrer
  CO2 permeability: 182 Barrer
  H2 permeability: 210 Barrer
  N2 permeability: 7.5 Barrer
  O2 permeability: 32 Barrer

## *c1c(C)cc(C)c(N2C(=O)c3ccc(C(c4ccc5c(c4)C(=O)N(*)C5=O)(C(F)(F)F)C(F)(F)F)cc3C2=O)c1C (repeat unit)
  CH4 permeability: 20.4 Barrer
  CO2 permeability: 422 Barrer
  H2 permeability: 435 Barrer
  N2 permeability: 24.3 Barrer
  O2 permeability: 87.7 Barrer

## *c1c(C)cc(Cc2cc(C)c(-n3c(=O)c4cc5c(=O)n(*)c(=O)c5cc4c3=O)c(C)c2)cc1C (repeat unit)
  CH4 permeability: 8.21 Barrer
  CO2 permeability: 97.6 Barrer
  N2 permeability: 7.08 Barrer
  O2 permeability: 27.4 Barrer

## *c1c(C)cc2c(c1C)C1c3ccccc3C2c2cc(C)c(-n3c(=O)c4cc5c(=O)n(*)c(=O)c5cc4c3=O)c(C)c21 (repeat unit)
  CH4 permeability: 238 Barrer
  CO2 permeability: 3360 Barrer
  H2 permeability: 2380 Barrer
  N2 permeability: 180 Barrer
  O2 permeability: 680 Barrer

## *c1c(C)cc2c(c1C)C1c3ccccc3C2c2cc(C)c(-n3c(=O)c4cc5oc6cc7c(cc6oc5cc4c3=O)C3(C(C)C)c4ccccc4C7(C(C)C)c4cc5oc6cc7c(=O)n(*)c(=O)c7cc6oc5cc43)c(C)c21 (repeat unit)
  CH4 permeability: 395 Barrer
  CO2 permeability: 5010 Barrer
  H2 permeability: 4140 Barrer
  N2 permeability: 306 Barrer
  O2 permeability: 1150 Barrer

## *c1c(C)cc2c(c1C)C1c3ccccc3C2c2cc(C)c(N3C(=O)c4ccc(C(c5ccc6c(c5)C(=O)N(*)C6=O)(C(F)(F)F)C(F)(F)F)cc4C3=O)c(C)c21 (repeat unit)
  CH4 permeability: 121 Barrer
  CO2 permeability: 1730 Barrer
  H2 permeability: 1400 Barrer
  N2 permeability: 113 Barrer
  O2 permeability: 374 Barrer

## *c1cc(-c2nc3cc(-c4ccc5[nH]c(*)nc5c4)ccc3[nH]2)cc(C(C)(C)C)c1 (repeat unit)
  CH4 permeability: 0.05 Barrer
  CO2 permeability: 1.91 Barrer
  H2 permeability: 10.7 Barrer
  N2 permeability: 0.06 Barrer
  O2 permeability: 0.42 Barrer

## *c1cc(C(=O)OCCC(F)(F)C(F)(F)C(F)(F)C(F)(F)C(F)(F)C(F)(F)F)cc(N2C(=O)c3ccc(C(=O)c4ccc5c(c4)C(=O)N(*)C5=O)cc3C2=O)c1 (repeat unit)
  CH4 permeability: 4.19 Barrer
  CO2 permeability: 75 Barrer
  N2 permeability: 4.49 Barrer
  O2 permeability: 19.7 Barrer

## *c1cc(C(=O)OCCC(F)(F)C(F)(F)C(F)(F)C(F)(F)C(F)(F)C(F)(F)F)cc(N2C(=O)c3ccc(C(c4ccc5c(c4)C(=O)N(*)C5=O)(C(F)(F)F)C(F)(F)F)cc3C2=O)c1 (repeat unit)
  CH4 permeability: 0.44 Barrer
  CO2 permeability: 17.8 Barrer
  N2 permeability: 0.74 Barrer
  O2 permeability: 4.74 Barrer

## *c1cc(C(=O)OCCC(F)(F)C(F)(F)C(F)(F)C(F)(F)C(F)(F)C(F)(F)F)cc(N2C(=O)c3ccc(Oc4ccc5c(c4)C(=O)N(*)C5=O)cc3C2=O)c1 (repeat unit)
  CH4 permeability: 0.36 Barrer
  CO2 permeability: 11 Barrer
  N2 permeability: 0.56 Barrer
  O2 permeability: 2.61 Barrer

## *c1cc(C(c2ccc(C)c(-n3c(=O)c4cc5oc6cc7c(cc6oc5cc4c3=O)C3(CC(C)(C)c4cc5oc6cc8c(=O)n(*)c(=O)c8cc6oc5cc43)CC7(C)C)c2)(C(F)(F)F)C(F)(F)F)ccc1C (repeat unit)
  CH4 permeability: 9 Barrer
  CO2 permeability: 210 Barrer
  H2 permeability: 220 Barrer
  N2 permeability: 9 Barrer
  O2 permeability: 39 Barrer

## *c1cc(C)c(C)c(N2C(=O)c3ccc(Oc4cc(C)c(Oc5ccc6c(c5)C(=O)N(*)C6=O)c(C)c4C)cc3C2=O)c1C (repeat unit)
  CH4 permeability: 4 Barrer
  CO2 permeability: 110 Barrer
  H2 permeability: 130 Barrer
  N2 permeability: 3.8 Barrer
  O2 permeability: 18 Barrer

## *c1cc(C)c2c(c1)S(=O)(=O)c1cc(N3C(=O)c4ccc(-c5ccc6c(c5)C(=O)N(*)C6=O)cc4C3=O)cc(C)c1-2 (repeat unit)
  CH4 permeability: 0.195 Barrer
  CO2 permeability: 7.73 Barrer
  H2 permeability: 28.2 Barrer
  N2 permeability: 0.499 Barrer
  O2 permeability: 3.29 Barrer

## *c1cc2c(cc1*)C1(C(C)C)c3ccccc3C2(C(C)C)c2cc3c(cc21)Oc1cc2nc(*)c(*)nc2cc1O3 (repeat unit)
  CH4 permeability: 7.27 Barrer
  H2 permeability: 1100 Barrer
  N2 permeability: 7.09 Barrer
  O2 permeability: 61 Barrer

## *c1cc2c(cc1C)-c1cc(C)c(N3C(=O)c4ccc(C(c5ccc6c(c5)C(=O)N(*)C6=O)(C(F)(F)F)C(F)(F)F)cc4C3=O)cc1S2(=O)=O (repeat unit)
  CH4 permeability: 1.74 Barrer
  CO2 permeability: 73.5 Barrer
  H2 permeability: 156 Barrer
  N2 permeability: 3.27 Barrer
  O2 permeability: 16.5 Barrer

## *c1cc2c(cc1C)-c1cc(C)c(N3C(=O)c4ccc(S(=O)(=O)c5ccc6c(c5)C(=O)N(*)C6=O)cc4C3=O)cc1S2(=O)=O (repeat unit)
  CH4 permeability: 0.244 Barrer
  CO2 permeability: 14.1 Barrer
  H2 permeability: 45.4 Barrer
  N2 permeability: 0.37 Barrer
  O2 permeability: 3.29 Barrer

## *c1cc2c(cc1O)C1(CC2(C)C)CC(C)(C)c2cc(N3C(=O)C4C(C3=O)C3(Br)C(Br)=C(Br)C4(Br)C4C(=O)N(*)C(=O)C43)c(O)cc21 (repeat unit)
  CH4 permeability: 4.9 Barrer
  CO2 permeability: 138 Barrer
  H2 permeability: 274 Barrer
  N2 permeability: 5.3 Barrer
  O2 permeability: 31.2 Barrer

## *c1ccc(*)n1C (repeat unit)
  CH4 permeability: 0.22 Barrer
  CO2 permeability: 6.9 Barrer
  N2 permeability: 0.33 Barrer
  O2 permeability: 2.04 Barrer

## *c1ccc(-c2ccc(-c3ccc(C(*)(c4ccccc4)C(F)(F)F)cc3)cc2)cc1 (repeat unit)
  CH4 permeability: 13 Barrer
  CO2 permeability: 220 Barrer
  H2 permeability: 126 Barrer
  N2 permeability: 9 Barrer
  O2 permeability: 32 Barrer

## *c1ccc(-c2ccc(C(*)(C(F)(F)F)C(F)(F)F)cc2)cc1 (repeat unit)
  CH4 permeability: 34 Barrer
  CO2 permeability: 470 Barrer
  H2 permeability: 470 Barrer
  N2 permeability: 41 Barrer
  O2 permeability: 120 Barrer

## *c1ccc(-c2ccc(N3C(=O)c4ccc(Oc5cc(C(C)(C)C)ccc5Oc5ccc6c(c5)C(=O)N(*)C6=O)cc4C3=O)c(OC)c2)cc1OC (repeat unit)
  CH4 permeability: 0.16 Barrer
  CO2 permeability: 6.7 Barrer
  H2 permeability: 22 Barrer
  N2 permeability: 0.21 Barrer
  O2 permeability: 1.4 Barrer

## *c1ccc(-c2ccc(Oc3ccc(C4(c5ccc(Oc6ccc(-c7ccc(-n8c(=O)c9cc%10c(=O)n(*)c(=O)c%10cc9c8=O)cc7)cc6C(F)(F)F)cc5)c5ccccc5C(=O)N4c4ccccc4)cc3)c(C(F)(F)F)c2)cc1 (repeat unit)
  CH4 permeability: 0.79 Barrer
  CO2 permeability: 39.6 Barrer
  N2 permeability: 1.2 Barrer
  O2 permeability: 7.62 Barrer

## *c1ccc(-c2ccc(Oc3ccc(C4(c5ccc(Oc6ccc(-c7ccc(N8C(=O)c9ccc(C(=O)c%10ccc%11c(c%10)C(=O)N(*)C%11=O)cc9C8=O)cc7)cc6C(F)(F)F)cc5)c5ccccc5C(=O)N4c4ccccc4)cc3)c(C(F)(F)F)c2)cc1 (repeat unit)
  CH4 permeability: 0.62 Barrer
  CO2 permeability: 17.1 Barrer
  N2 permeability: 0.83 Barrer
  O2 permeability: 4.33 Barrer

## *c1ccc(-c2ccc(Oc3ccc(C4(c5ccc(Oc6ccc(-c7ccc(N8C(=O)c9ccc(Oc%10ccc%11c(c%10)C(=O)N(*)C%11=O)cc9C8=O)cc7)cc6C(F)(F)F)cc5)c5ccccc5C(=O)N4c4ccccc4)cc3)c(C(F)(F)F)c2)cc1 (repeat unit)
  CH4 permeability: 0.84 Barrer
  CO2 permeability: 14.6 Barrer
  N2 permeability: 0.96 Barrer
  O2 permeability: 4.22 Barrer
